We go through 1 molecule from paper PMC10094418, “Butein Inhibits Cell Growth by Blocking the IL-6/IL-6Rα Interaction in Human Ovarian Cancer and by Regulation of the IL-6/STAT3/FoxO3a Pathway” (International Journal of Molecular Sciences, 2023).

One data set addresses T1, IL-6Rα (Homo sapiens, UniProt P08887).
T1 construct: purchased PeproTech
T1 sequence (P08887 20-468): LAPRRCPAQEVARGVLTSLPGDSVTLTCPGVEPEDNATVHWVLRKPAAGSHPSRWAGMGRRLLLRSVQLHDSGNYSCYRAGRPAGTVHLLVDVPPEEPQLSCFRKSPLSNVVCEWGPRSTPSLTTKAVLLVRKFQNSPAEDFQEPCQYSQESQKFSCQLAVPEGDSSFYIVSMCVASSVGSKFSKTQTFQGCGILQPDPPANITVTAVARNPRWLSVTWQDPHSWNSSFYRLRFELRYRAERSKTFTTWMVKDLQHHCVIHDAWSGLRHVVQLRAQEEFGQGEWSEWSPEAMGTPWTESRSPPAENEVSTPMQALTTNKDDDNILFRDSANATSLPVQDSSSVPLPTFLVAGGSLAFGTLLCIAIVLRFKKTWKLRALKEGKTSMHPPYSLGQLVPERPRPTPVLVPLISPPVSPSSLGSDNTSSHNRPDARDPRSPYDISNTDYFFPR
Briefly: Surface plasmon resonance, immobilized IL-6Rα. In kind it is binding. The settings on record: SPR, CM5 chip, steady-state KD. On the procedure:
The surface plasmon resonance (SPR) assay was measured using the BIAcore T200 model (GE Healthcare, Chicago, IL, USA) with HBS-EP buffer (1×HBS-EP, GE Healthcare, Chicago, IL, USA) containing 5% dimethyl sulfoxide (DMSO; Sigma-Aldrich, St. Louis, MO, USA). The pH scouting for IL-6 (PeproTech, Rocky Hill, NJ, USA), IL-6Rα (PeproTech, Rocky Hill, NJ, USA), and gp130 (Sino Biological, Beijing, China, or ANRT, Daejeon, Korea) immobilization was performed in 10 mM acetate buffer at pH 4.5. IL-6, IL-6Rα, and gp130 were immobilized on a CM5 chip at 750, 1200, and 2000 response units (RU). Butein was injected into the IL-6, IL-6Rα and gp130-immobilized flow cell at concentrations of 10, 20, 30, 40, 50, 60, 70, 80, 90, and 100 μM with a 25 μL/min flow rate for 150 s and allowed to dissociate for 300 s. Steady-state KD was determined via the T-200 BIAevaluation software (GE Healthcare, Chicago, IL, USA).
(In SPR one partner is held on a chip, and binding of the other changes the refractive index at the surface.)

For the next data set, the system named is A2780 cells. Briefly: Annexin V apoptosis assay, A2780. Type of data set: cell-based, human. The note with it: dose-dependent, p < 0.005. On the procedure:
A2780 and SKOV3 cell lines were treated with control (siltuximab 10 μM) and butein (5, 10, and 25 μM). After 6 h, the cells were fixed with 70% ethanol for cell cycle analysis and stained with propidium iodide (PI). Cell death was analyzed using the FITC Annexin V Apoptosis Detection kit with 7-AAD (Cat.no. 640922, BioLegend, San Diego, CA, USA). Cells were sorted using a FACS Canto II (BD Biosciences, Franklin Lakes, NJ, USA) and cell cycle and apoptosis were analyzed using BD FACS Diva software version 6. 2. Analysis (BD Biosciences, Franklin Lakes, NJ, USA) was performed in triplicate.

The subject of the next data set is SKOV3 cells. Kind of data set: Wound-healing assay, SKOV3. Type of data set: cell-based, human. The settings on record: 24 h and 48 h, concentration-dependent, vs control, 0.1% DMSO and siltuximab. On the procedure:
A2780 and SKOV3 cells were cultured to 90% confluence in 6-well plates. After changing to a serum-free medium, the cell monolayer was scraped to artificially form homogeneous wound with uniform thickness. The drug treatment for each well was carried out in the following manner: siltuximab at 50 μM; butein at 10, 25, and 50 μM. The cells were imaged at 0, 24, and 48 h.

A further data set has as its system A2780 xenograft tumors. Briefly: A2780 mouse xenograft. In kind it is in vivo, BALB/c nude mice. On the procedure:
Adult BALB/c nude mice aged 5 weeks (n = 5, body weight 17−19 g) were purchased from Orient Bio (Seongnam, Republic of Korea) and reared in aseptic conditions with 55 ± 10% humidity and 25 ± 2 °C temperature under a 12 h/12 h light-dark cycle (Catholic University protocol). All animal experimental work was carried out in compliance with the legal obligations and federal guidelines and legal obligations for the care and maintenance of laboratory animals. All animal experiments were conducted with the approval of the Institutional Animal Care and Use Committee of the Catholic University of Korea (approval number: CUK-IACUC-2019-026-01). A2780 cell suspension (1 × 10^7 cells/200 μL in 1 × PBS) was injected subcutaneously into the dorsal scapula area of each mouse. The tumor developed 14 days after implantation to a size of approximately 150 mm^3. The mice were then divided randomly into vehicle control (5% DMSO), siltuximab (10 mg/kg), and butein (2 or 4 mg/kg) groups. All drugs were dissolved in 0.05% carboxymethylcellulose sodium salt (CMC) (Sigma-Aldrich, St. Louis, MO, USA) and injected intraperitoneally five times a week for three weeks. The tumor size was measured using calipers once every 2 days. The tumor volume was calculated using a simplified equation (length × width^2 × 0.5). Each tumor was harvested 22 days post-treatment.

For data set [1], the system named is STAT3 phosphorylation in SKOV3 cells. Kind of data set: Western blotting of STAT3 phosphorylation, SKOV3. In kind it is cell-based, human. The settings on record: relative to IL-6 treated cells. On the procedure:
After each drug treatment of the cells, the cells were dissolved in 100 μL of radioimmunoprecipitation assay (RIPA) buffer (Thermo Fisher Scientific Inc., Waltham, MA, USA) and centrifuged to separate the supernatant containing protein. Isolated protein concentrations were measured using the Pierce BCA Protein Assay Kit (Thermo Fisher Scientific Inc., Waltham, MA, USA). Aliquots of proteins quantified at […] were boiled at 100 °C in 5× sample buffer, separated on a 12% SDS-polyacrylamide gel and electrophoresed onto polyvinylidene difluoride (PDVF) membranes (Millipore, Billerica, MA, USA). The PDVF membranes were blocked for 1 h at 25 °C with 5% BSA in 1× tris buffered saline containing 0.05% Tween20 (TBST) (Sigma-Aldrich, St. Louis, MO, USA). The membrane was incubated in the primary antibody at 4 °C overnight. PDVF membranes were washed with 1× TBST and incubated with AffiniPure goat anti-rabbit IgG secondary antibody (Jackson Immunoresearch, West Grove, PA, USA) for 1 h at room temperature. After washing again with TBST buffer, enhanced signals were detected using the SuperSignal™ West Femto Maximum Sensitivity Substrate kit (cat.no. 34094, Thermo Scientific, Rockford, IL, USA). The blot was imaged using the ChemiDoc imaging system (Bio-Rad, Herles, CA, USA), and protein expression was quantified with the ImageJ software (v1.8.0).
A general note: Immunoblotting shows a protein as a band on a membrane.

Each structure is given as a SMILES string.

`O=C(/C=C/c1ccc(O)c(O)c1)c1ccc(O)cc1O` [butein]: the affinity on IL-6Rα, expressed as Kd, was 435 µM. In addition, the “Total apoptosis, A2780” value in the data set with A2780 cells is on record as “significantly increase”. In the data set on SKOV3 cells, the “Cell migration, SKOV3” value is given as “reduced”. Also, the Tumor growth entry in the data set on A2780 xenograft tumors (2 or 4 mg/kg i.p. five times a week, vs vehicle and siltuximab-treated group) is “significant inhibition”. Also, the Total mouse weight result in the data set on A2780 xenograft tumors (during the experimental period) is given as “no difference”. For the same molecule, the “Phosphorylation of STAT3, SKOV3” value in data set [1] is recorded as “inhibited in a concentration-dependent manner”.

By Kd is commonly meant the concentration at which binding is half-saturated.
